Test results published in publication PMC8072890, “Aminoalkylamides of Eremomycin Exhibit an Improved Antibacterial Activity” (Pharmaceuticals, 2021).
Converted amounts (≈) assume the structure as drawn. Read-outs that look alike come from different tables or passages of the source. Marks after values point to notes of the source that are not given here.

Experiments:
E. faecalis 559 = format: cell-based; conditions: sensitive strain; broth dilution micromethod, CLSI; modal values (or range) of 3–5 independent tests
Text: (§1) The antimicrobial activity of semisynthetic derivatives of eremomycin 4a–q was studied in comparison with vancomycin on a wide panel of Gram-positive bacteria sensitive (Staphylococcus aureus ATCC 29213, S. aureus R-2, S. haemoliticus 602, S. pneumoniae ATCC 6305, Enteroccus faecium 4, and E. faecalis 559) and resistant to vancomycin (S. aureus 3797, S.aureus 3798, E. faecium 2, E. faecium 3576, E. faecalis 9, E. faecalis 583, and E. gallinarum BΠ 4147), information about the strains given in Table S3. The minimum microbial inhibitory concentration (MIC) for the test compounds was determined by the broth dilution micromethod according to CLSI guidelines, and vancomycin and a standard strain S. aureus ATCC 29213 used as controls (Figure 2 and Tables S4 and S5).
(§2) Table S4. Antibacterial activity of vancomycin and derivatives 4a–q against sensitive Gram-positive bacteria.
(§3) Strain/MIC (Minimum inhibitory concentration, μg/ml)*
(§4) Compound m n R S.aureus АТСС S.aureus R-2 S.haemoliticus S.pneumoniae АТСС E. faecium 4 E. faecalis 559
(§5) *MICs are presented as modal values for 3–5 independently replicated MIC tests for each strain and for the antibiotics. In the range of the
(§6) obtained MIC values, the obtained modal values are highlighted in bold.

E. faecium 4 = format: cell-based; conditions: sensitive strain; broth dilution micromethod, CLSI; modal values (or range) of 3–5 independent tests
Text: as §1, §2, §3, §4, §5, §6

S. aureus R-2 = format: cell-based; conditions: sensitive strain; broth dilution micromethod, CLSI; modal values (or range) of 3–5 independent tests
Text: as §1, §2, §3, §4, §5, §6

S. haemoliticus 602 = format: cell-based; conditions: sensitive strain; broth dilution micromethod, CLSI; modal values (or range) of 3–5 independent tests
Text: as §1, §2, §3, §4, §5, §6

[1] = test system: Staphylococcus aureus ATCC 29213; format: cell-based; conditions: vancomycin-sensitive control strain; broth dilution micromethod, CLSI; modal values (or range) of 3–5 independent tests
Text: as §1, §2, §3, §4, §5, §6

E. faecalis 583 = format: cell-based; conditions: strain resistant to vancomycin; broth dilution micromethod, CLSI; modal values (or range) of 3–5 independent tests
Text: as §1
(§7) Table S5. Antibacterial activity of vancomycin and derivatives 4a–q against resistant Gram-positive bacteria.
(§8) Strain/MIC (minimum inhibitory concentration; μg/ml)
(§9) Compound m n R S.aureus 3797 S.aureus 3798 E. faecium 2 E. faecium 3576 E. faecalis 9 E. faecalis 583 E. gallinarum
(§10) *MICs are presented as modal values for 3–5 independently replicate MIC tests for each strain and for the antibiotics. In the range of the obtained MIC
(§11) values, the obtained modal values are highlighted in bold.

E. faecalis 9 = format: cell-based; conditions: strain resistant to vancomycin; broth dilution micromethod, CLSI; modal values (or range) of 3–5 independent tests
Text: as §1, §7, §8, §9, §10, §11

E. faecium 2 = format: cell-based; conditions: strain resistant to vancomycin; broth dilution micromethod, CLSI; modal values (or range) of 3–5 independent tests
Text: as §1, §7, §8, §9, §10, §11

E. faecium 3576 = format: cell-based; conditions: strain resistant to vancomycin; broth dilution micromethod, CLSI; modal values (or range) of 3–5 independent tests
Text: as §1, §7, §8, §9, §10, §11

E. gallinarum BΠ 4147 = format: cell-based; conditions: strain resistant to vancomycin; broth dilution micromethod, CLSI; modal values (or range) of 3–5 independent tests
Text: as §1, §7, §8, §9, §10, §11

S. aureus 3797 = format: cell-based; conditions: strain resistant to vancomycin; broth dilution micromethod, CLSI; modal values (or range) of 3–5 independent tests
Text: as §1, §7, §8, §9, §10, §11

S.aureus 3798 = format: cell-based; conditions: strain resistant to vancomycin; broth dilution micromethod, CLSI; modal values (or range) of 3–5 independent tests
Text: as §1, §7, §8, §9, §10, §11

[2] = test system: S. aureus (strain 10, clinical isolate); assay: Mouse staphylococcal sepsis model, single IV administration; format: in vivo, mice (SHK colony); conditions: for Survival: 30 min after infection, n = 10; for ED50: mice infected IV with lethal dose of S. aureus (8 × 10^8 CFU/mouse), single IV dose 30 min after infection, n = 10 per group, observed 14 days, Behrens method
Description: A comparative study of the efficacy of eremomycin N-(2-((2-fluorobenzyl)amino)ethyl)amide (4e) and vancomycin was carried out in a mice staphylococcal sepsis model. Healthy female mice of the SHK colony weighing 20–22 g after two-week quarantine were randomized into groups (n = 10) and received S. aureus as the infectious agent (strain 10, clinical isolate, adapted for growth in vivo by five-fold passaging in mice). In the experiment, female mice of the SHK colony weighing 20–22 g were used. S. aureus (strain 10, clinical isolate), adapted for growth in vivo by five-fold passaging in mice, was used as the infectious agent. Initially, the lethal dose (LD100) of staphylococcus was determined for this mouse line using the intravenous infection route. The mice deaths were counted daily for 10 days. Thus, the lethal dose (LD100) was defined as 8 × 10^8 CFU/mouse. Afterwards, the mice were seated in cages of 10 heads and were infected intravenously with S. aureus at a lethal dose, and the efficacy of the tested drugs was determined by the ED50 value (i.e., the dose at which 50% of the experimental animals survive). Then, 30 min after infection, the mice were injected intravenously with eremomycin N-(2-((2-fluorobenzyl)amino)ethyl)amide (4e) at single doses from 0.1 to 2.5 mg/kg. or vancomycin at doses from 2.5 to 7.5 mg/kg. As a control dose, a group of untreated animals infected with a lethal dose of S. aureus was present in the experiment. The determination of ED50 of the tested compounds was carried out in one experiment under a single control using the Behrens method.

[3] = Acute toxicity, single IV injection in mice; format: in vivo, F1 (CBAxC57Bl) mice; conditions: for therapeutic index (TI = LD50/ED50): laboratory animals (mice), IV, LD50 acute toxicity / ED50 staphylococcal sepsis
Description: The F1 (CBAxC57Bl) mice (18–20 g) were randomized into groups (n = 6) and received eremomycin N-(2-((2-fluorobenzyl)amino)ethyl)amide 4e through single intravenous injections. The intact animals were used as the control. The substance was dissolved in a 5% glucose solution and was administrated in dosage ranges of 130–200 mg/kg into the tail veins of the mice. The concentration of 4e in the injected solution was 5 mg/mL.
The acute toxicity was estimated by the mortality and survival time, as well as by the body weight gain/loss, food consumption, and clinical symptoms of intoxication, including behavioral reactions. […] The LD50 values and the maximum tolerated doses (MTD = LD10) were calculated using the method of Litchfield and Wilcoxon using the StatPlus Professional 3.8.0 software.

[4] = mice, IV administration; previous investigation; cited from earlier work
Description: For the characterization of the therapeutic potential of the lead compound 4e, an acute toxicity test for an IV single-dose administration was also carried out (Table 2). […] The drug administration in doses of 130–190 mg/kg led to the death of some animals from 2 to 15 min after injections as a result of cardiac and respiratory arrest against the background of neurotoxicity. […] The quantitative parameters of acute toxicity (LD50 and MTD (LD10) values ...

S. pneumoniae ATCC 6305 = assay: MIC, broth dilution micromethod (CLSI); format: cell-based; conditions: sensitive strain, modal values (or range) of 3–5 independent tests
Text: as §1, §2, §3, §4, §5, §6

[5] = mouse staphylococcal sepsis model, single IV

Compound | MIC E. faecalis 559 (E. faecalis 559) [µg/mL] | MIC E. faecium 4 (E. faecium 4) [µg/mL] | MIC S.aureus R-2 (S. aureus R-2) [µg/mL] | MIC S.haemoliticus 602 (S. haemoliticus 602) [µg/mL] | MIC S.aureus ATCC 29213 [1] [µg/mL] | MIC E. faecalis 583 (E. faecalis 583) [µg/mL] | MIC E. faecalis 9 (E. faecalis 9) [µg/mL] | MIC E. faecium 2 (E. faecium 2) [µg/mL] | MIC E. faecium 3576 (E. faecium 3576) [µg/mL] | MIC E. gallinarum ВП 4147 (E. gallinarum BΠ 4147) [µg/mL] | MIC S.aureus 3797 (S. aureus 3797) [µg/mL] | MIC S.aureus 3798 (S.aureus 3798) [µg/mL] | Survival ([2]; dose 2.5 mg/kg, single IV) [%] | ED50 [2] [mg/kg] | therapeutic index (TI = LD50/ED50) [3] | further results
CN[C@H](CC(C)C)C(=O)N[C@H]1C(=O)N[C@@H](CC(N)=O)C(=O)N[C@H]2C(=O)N[C@H]3C(=O)N[C@H](C(=O)N[C@H](C(=O)O)c4cc(O)cc(O)c4-c4cc3ccc4O)[C@H](O)c3ccc(c(Cl)c3)Oc3cc2cc(c3O[C@@H]2O[C@H](CO)[C@@H](O)[C@H](O)[C@H]2O[C@H]2C[C@](C)(N)[C@H](O)[C@H](C)O2)Oc2ccc(cc2Cl)[C@H]1O [Vancomycin, vancomycin, reference compound] | 2 (≈ 1.38 µM) | 4 (≈ 2.76 µM) | 1 (≈ 0.69 µM) | 2 (≈ 1.38 µM) | 0.25 to 0.5 | 32 (≈ 22.1 µM) | 8 (≈ 5.52 µM) | 8 (≈ 5.52 µM) | > 32 | 8 (≈ 5.52 µM) | 8 (≈ 5.52 µM) | 8 (≈ 5.52 µM) | 20 | 4.1 | 128 | Survival ([2]; dose 3.5 mg/kg, single IV): 40%; Survival ([2]; dose 4.5 mg/kg, single IV): 50%; Survival ([2]; dose 5.5 mg/kg, single IV): 80%; Survival ([2]; dose 6.5 mg/kg, single IV): 90%; Survival ([2]; dose 7.5 mg/kg, single IV): 100%; LD50 [4]: 525 mg/kg
Eremomycin N-(2-((2-fluorobenzyl)amino)ethyl)amide [4e] | 0.125 | 0.25 | 0.03 to 0.06 | 0.125 | 0.125 | 0.25 to 0.5 | 0.03 to 0.06 | 0.5 | 0.5 to 1 | 0.5 | 0.5 | 1 | 100 | 0.55 | 318 | MIC S.pneumoniae ATCC 6305 (S. pneumoniae ATCC 6305): 0.01 µg/mL; Survival ([2]; dose 0.25 mg/kg, single IV): 30%; Survival ([2]; dose 0.5 mg/kg, single IV): 50%; Survival ([2]; dose 1 mg/kg, single IV): 60%; Survival ([2]; dose 1.5 mg/kg, single IV): 80%; ED50 ratio: times more active than eremomycin [2, 5]: 3.3 times; ED50 ratio: times more effective than vancomycin [2, 5]: 7.5 times; outcome after the highest dose ([3]; 200 mg/kg, single IV, mice): died immediately; delayed death of animals ([3]; 130–200 mg/kg, single IV, mice, observed 30 days): No delayed death; LD50 ([3]; mice, single IV injection in 5% glucose, 5 mg/mL, n = 6 per group, Litchfield and Wilcoxon, mean (deviation for p ≤ 0.05)): 175.5 (161.7 ÷ 189.8) * mg/kg; MTD (LD10) ([3]; mice, single IV injection, n = 6 per group, Litchfield and Wilcoxon): 144.7 mg/kg
